Measured values from patent publication US12534497B2, “TEIPP peptide variant and use as a medicament” (Academisch Ziekenhuis Leiden (h.o.d.n. LUMC), priority 2019, dated 2026).
No end group written: not given here.

Tests used:
[1] = test system: LRPAP1-specific T cell clone
[2] = test system: monocyte-derived dendritic cells; experiment: Cross-presentation of long peptides by monocyte-derived dendritic cells, read out by LRPAP1-specific CD8 T cell clone cytokine release; type: cell-based, human; settings: positive control on moDC
Protocol: (A) Monocyte-derived dendritic cells were incubated with indicated long peptides comprising the LRPAP1 epitope and co-cultured with a TEIPP-specific CD8 T cell clone 1A8. Non-natural flanking amino acids at the amino-terminus, or natural flanking amino acids at the carboxy-terminus or natural flanking amino acids at both ends were used to elongate the minimal epitope. GM-CSF secretion by the TEIPP-specific T cell clone was used to determine cross-presentation efficiency and pulsing with short peptide ([…]) was used as positive control. (B) Predicted HLA-A2*01 binding affinity scores of LRPAP1 peptides with substituted amino acids at the C-terminal p9 (MHCnet 4.0 algorithm). Binding affinity score was calculated on basis of the IC50 values and ranking percentage (see Table 2 for exact values). (C) Predicted proteasome cleavage activity for four different LRPAP1 peptides using NetCHop 3.1 algorithm. […] (D) Functional T cell avidity was measured as GM-CSF secretion by TEIPP-specific T cell clone stimulated with short peptide—pulsed EBV-JY cells in serial dilutions of the peptides. […] (E) EC50 values were calculated from values obtained in D (wherein EC values represent the dose of peptide resulting in half of the maximal response to that particular peptide variant). […] Cross-presentation of the indicated long peptides was determined by T cell clone. […]

[3] = biological target: HLA-A*0201 (Homo sapiens, UniProt P04439, D140Y/D185E/D98H/E176V/E277Q/G131W/G231S/I119V/I121R/I166T/I218V/L300P/L318F/N151K/N90K/P208A/P217A/Q86G/Q94H/R138H/R169H/T345S); settings: previous studies; cited from earlier work
[4] = test system: TCR-transduced CD8 T cells; experiment: Reactivity of TCR-transduced T cells to peptide pulsed EBV-JY cells (cytokine ELISA); type: cell-based, human; settings: V-variant compared with S-variant peptide
From the text: (B) TCRαβ gene transduction into T cells from a healthy donor. The introduced genes contain the murine TCR-αβ domain which enhances correct pairing of transgenic alpha and beta chains. Expression of this domain is confirmed in TCR-transduced T cells (on the horizontal axis). (C) Staining of TCRαβ transduced CD8 T cells with fluorescently labeled tetramers comprising the short natural peptide sequence (left panel) or the V-substituted peptide (right panel). (D) Functional reactivity of tetramer-enriched TCR-transduced T cells to peptide pulsed EBV-JY cells as measured by indicated cytokine production using ELISA. Means and SD are depicted from one out of three experiments with similar outcome. […] TCR-transduced T cells were stimulated with either the wild type version of two different melanoma cell lines, or their TAP knock out (TAP KO) variants generated by CRISPR/CAS9 technology. […] T cells only served as control.
Platinum-Amphotropic retrovirus production (Plat-A) retroviral packing cells (Cell Biolabs) were used for retrovirus production. Plat-A cells were seeded in 6-well plates and incubated overnight until fully attached. Next, the cells were transfected with 2 μg pMP71_1A8 TCR vector using lipofectamine 2000. Retrovirus supernatant was collected on 24 h and 48 h after transfection, spun down to remove cells, and stored in −80° C. […]

[5] = test system: TAP KO melanoma cells; experiment: Recognition of TAP-deficient versus wild-type melanoma cells by peptide-induced T cell cultures; type: cell-based, human
From the text: (A) Schematic overview of the tetramer pull-down approach and subsequent stimulation with short peptides. (B) Specificity of polyclonal […] peptide isolated T cells (upper panel) or […] peptide isolated T cells (bottom panel) as measured by staining of the T cells with two fluorescently labeled tetramers comprising the short natural sequence (horizontal axis) or the V-substituted peptide (vertical axis) by flow cytometry. (C) Geomeans for double tetramer positive cells on […] or […] peptide isolated T cells. (D) IFNy and GM-CSF production of polyclonal T cell bulks when stimulated with peptide pulsed EBV-JY cells as measured by ELISA. Means and SD are plotted of one out of three independent experiments. (E) Reactivity of these polyclonal T cell bulks when stimulated with wild-type and TAP knock out 518A2 melanoma cells (rendered TAP-deficient by CRISPR/CAS9 technology) or no tumor cells (control) as measured by indicated cytokine production using ELISA.
18-mer (also referred to as 18-meer) is SEQ ID NO: 4; 21-mer (also referred to as 21-meer) SEQ ID NO: 5; 24-mer (also referred to as 24-meer) is SEQ ID NO:6; and 27-mer (also referred to as 27-meer) is SEQ ID NO: 7. […]
To test the functionality of these T cell bulks, cytokine responses were measured towards both short peptides pulsed on immortalized HLA-A*0201 positive B cells (FIG. 2d). […]

[6] = test system: LRPAP1-specific T cells; experiment: In vitro vaccination: SLP-loaded moDC co-cultured with tetramer-enriched autologous T cells, tetramer analysis; type: cell-based, human; settings: 2 healthy blood donors stimulated 2-3 times with length variants
Protocol: In short, CD14 monocytes isolated from PBMC of healthy donors were differentiated into dendritic cells by culturing with GM-CSF and IL-4 for 6 days. On day 7, moDCs were plated in 96-well and incubated with 20 uM of V-SLP for 20 h. During the last 18 hours the DCs were matured with […] LPS. On day 8, the moDCs were washed and co-cultured with PBMC enriched for LRPAP1-specific T cells by […]-tetramers. (A) Schematic overview of the in vitro vaccination protocol using two V-variant peptides (C-terminal and N-terminal extended) as synthetic long peptides that require cross-presentation by monocyte-derived dendritic cells for priming of CD8 T cells. […] Control co-cultures were incubated without a peptide. (C) LRPAP1-specific T cell clones were generated via single cell FACS sort and their specificity to the wild type (S-variant) and the V-variant peptide was assessed using two fluorescently labeled tetramers comprising the short wild type sequence (horizontal axis) or the V-substituted peptide (vertical axis) by flow cytometry. Clone 1A8 was generated and described in a previous study^7, and used here as a reference clone. (D) LRPAP1-specific T cells clones were examined for recognition of TAP-deficient melanoma cell lines and their wild-type counterparts. Clones 2H11, 2B9 and 1A10 are shown. Means and SD are shown from one out of two experiments with similar outcome. Clone 1A8, shown in (E), served as positive control. (E) LRPAP1-specific T cells clones were examined for recognition of TAP-deficient melanoma cell lines and their wild-type counterparts. Clones 4B11, 1C5, and 1A8 are shown. Means and SD are shown from one out of two experiments with similar outcome. Clone 1A8, served as positive control. […]
HLA-A*02:01 positive PBMCs were isolated from buffy-coats from consented donors (Sanquin bloodbank, Amsterdam), using a gradient ficoll layer. […] T cell specificity and reactivity were analyzed by flow cytometry.
Tetramer staining on CD8 T cells was performed by 15 min incubation at 4° C. and washed three times with cold PBS/BSA prior to cell surface staining. […] T cell activation was measured by intracellular IFNγ staining (XMF1.2, Biolegend) using an ICS kit (BioLegend) according to manufactures protocol. moDCs were stained with anti-CD1a (clone HI149, BD), anti-CD14 (clone M5E2, BD), anti-CD80 (clone L307.4, BD), anti-CD83 (clone HB15e, BD), anti-CD86 (clone IT2.2, biolegend), and anti HLA-DR (clone G46-6, BD) antibodies for 30 min at 4° C. and washed three times with cold PBS/BSA. Samples were acquired using a BD LSRFortessa™ flow cytometry system and analyzed using FlowJo software (Tree Star). […]

Sequence	EC50 [1] [mg/L]	expansion of HLA-A*02:01 FLGPWPAAS-specific CD8+ T cells [6]	also measured
LRGLPALLLLLLFLGPWPAAV [21-mer]	–	able to stimulate the expansion	–
RRVRSFLRGLPALLLLLLFLGPWPAAV [27-mer]	–	able to stimulate the expansion	–
RSFLRGLPALLLLLLFLGPWPAAV [24-mer]	–	able to stimulate the expansion	recognition of TAP KO versus TAP proficient melanoma cell lines by long peptide stimulated T cell cultures ([5]; co-cultures with TAP proficient and TAP KO melanoma cell lines): preferentially recognize the TAP KO melanoma cells
LPALLLLLLFLGPWPAAV [18-mer]	–	able to stimulate the expansion	–

Continued, in another order:

EC50 [1] [mg/L]	Sequence	expansion of HLA-A*02:01 FLGPWPAAS-specific CD8+ T cells [6]	also measured
3.7	FLGPWPAAL [FLGPWPAAL]	–	–
1.9	FLGPWPAAS	–	T cell stimulation by exogenous pulsing of short peptide [2]: did stimulate the T cells; binding affinity onto HLA-A*0201 [3]: moderate
0.1	FLGPWPAAV	–	cytokine responses of TCR-transduced T cells [4]: stronger cytokine responses; fold better T cell activation ([1]; V versus S at the C-terminus): 19 fold; cytokine response compared to the S-peptide ([1]; short peptide variants exogenously pulsed, titrated concentrations): more potent; recognition of TAP-negative versus wild type melanoma by peptide induced polyclonal T cell cultures ([5]; 518A2 melanoma cell line): preferred recognition of the TAP-negative tumor line
0.7	FLGPWPAAI	–	–
